# Reference: patent US11458146B2, “Compositions and methods for the treatment of myelin related and inflammation related diseases or disorders” (Duke University, priority 2017, dated 2022)
# “Also recorded” adds a separate entry of the source.
# Experiments:
# [1] = system: naïve CD4+ T cells; assay: TH17 polarization of naïve CD4+ T cells in vitro (flow cytometry, IL-17 production); type: cell-based, rodent; details: for cells polarized into the TH17 population: control cells 7.8%; for TH17 polarization (in words, FIG. 8): flow cytometry
# Experimental: Naïve CD4 T cells were isolated from rodent spleen tissue using CD4 magnetic beads. CD4+ lymphocytes were cultured on plates coated with anti-CD3 antibody and anti-CD28 antibodies in the presence of rTGFb, rIL-6, and rIL-23 for 5 days. Four hours prior to flow cytometry analysis, the cells were stimulated with PMA, ionomycin, and Brefeldin A. The cells were then analyzed for IL-17 production (FIG. 8, wherein CD4+ T cell culture in the presence of CD3/CD28-coated beads with IMDM media containing rTGFβ (4 ng/ml), rIL-6 (20 ng/ml), rIL-23 (50 ng/ml), anti-IL-4 Ab, and anti-IFNg Ab with or without GW or HC for 5 days. PMA (50 ng/ml), Ionomycin (500 ng/ml) for […], and Brefeldin A (10 μg/ml) for last 3 h)). 7.8% of the control cells polarized into the TH17 population. The LXR agonist GW3965 prevented TH17 polarization (2.6%).
# [2] = system: EAE induced with MOG35-55 peptide in C57BL/6J mice; assay: experimental allergic encephalitis (EAE) mouse model; type: in vivo
# Experimental: EAE was induced using myelin oligodendrocyte glycoprotein (MOG35-55) peptide using standard approaches (see, e.g., Bittner et al., J. Vis. Exp., 86: 51275 (2014); and Miller et al., Curr Protoc Immunol., Unit-15.1 (2007)) in 15 wild-type 8 week old C57BL/6J mice. TH17 T cell populations are pathogenic in the EAE model and have been implicated in multiple sclerosis (MS). Seven mice (3 male, 4 female) proceeded without further intervention while 8 mice (3 female and 5 male) were given daily 125 μL subcutaneous injections of 20HC resuspended in corn oil (10 mg/mL) two days prior to EAE induction and through day 14, just prior to peak clinical severity. Mice were scored daily for the development of ascending paralysis that is indicative of the development of EAE. In vivo treatment of mice with 20HC (50 mg/kg/day) disrupted the development of MS-like symptoms in the EAE model, as shown in FIGS. 9A and 9B.
# [3] = target: smoothened (SMO) (Homo sapiens, UniProt Q99835); details: fibroblast cell culture systems; recent studies; cited from earlier work
# smoothened (SMO), sequence (Q99835 28-787): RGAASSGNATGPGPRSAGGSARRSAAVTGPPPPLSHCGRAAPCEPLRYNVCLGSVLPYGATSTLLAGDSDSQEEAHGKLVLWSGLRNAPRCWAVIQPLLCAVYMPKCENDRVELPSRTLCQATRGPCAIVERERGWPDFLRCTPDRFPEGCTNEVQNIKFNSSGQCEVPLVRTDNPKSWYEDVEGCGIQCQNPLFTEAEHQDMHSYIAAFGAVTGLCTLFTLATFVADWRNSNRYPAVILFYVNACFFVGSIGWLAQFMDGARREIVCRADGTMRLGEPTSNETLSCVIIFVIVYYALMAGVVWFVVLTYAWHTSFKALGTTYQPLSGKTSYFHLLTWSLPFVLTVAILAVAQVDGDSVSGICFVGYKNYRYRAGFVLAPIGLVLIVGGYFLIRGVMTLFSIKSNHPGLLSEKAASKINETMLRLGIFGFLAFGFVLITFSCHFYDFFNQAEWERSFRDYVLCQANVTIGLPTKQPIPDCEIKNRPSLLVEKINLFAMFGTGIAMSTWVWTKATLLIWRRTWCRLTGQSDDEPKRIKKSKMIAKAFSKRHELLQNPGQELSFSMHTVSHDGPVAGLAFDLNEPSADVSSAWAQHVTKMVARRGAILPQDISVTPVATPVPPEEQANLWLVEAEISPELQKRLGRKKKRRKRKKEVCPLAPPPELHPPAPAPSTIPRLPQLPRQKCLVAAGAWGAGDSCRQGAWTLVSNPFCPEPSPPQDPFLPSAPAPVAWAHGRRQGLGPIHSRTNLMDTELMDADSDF
# [4] = system: Primary neural stem cells; assay: in vitro screening method for oligodendrogenesis (CNPase+ cell count); type: cell-based, mice; details: exposed five days, differentiated 15-18 days; compared to media control
# Description: Primary neural stem cells generated from mice were screened for oligodendrogenic potential after treatment with 20HC, 22HC, 24HC, 25HC, and 27HC. Neural stem cells in 8-well chamber slides were exposed to the indicated oxysterol for five days, and then allowed to differentiate for 15-18 days. Following differentiation, cells were fixed and stained for oligodendrocyte markers CNPase and myelin basic protein (MBP) (FIG. 6A). Stained cells were randomly sampled with a 40× objective, using Stereo Investigator software to eliminate bias, while quantifying the number of oligodendrocytes. Each condition was sampled at 10-12 computer selected sites. Images were used to count the number of nucleated CNPase+ cells per high power field (HPF).
# [5] = system: NF-κB; assay: NF-κB activation in LPS-treated primary splenic monocytes (western blot); type: cell-based, mice; details: 1 μm 20HC for 24 hours, then 500 ng/mL LPS
# Experimental: FIG. 7 is a Western blot showing the 20HC inhibition of NFκB pathway in primary splenic monocytes. Primary monocytes were exposed to media, 20HC (24 hour)+LPS (500 ng/ml), or LPS alone for 4 hours. 20HC prevented IκB degradation and p65 phosphorylation in LPS treated cells.
# Splenocytes where harvested from postnatal day 12 mice. Monocytes were negatively selected using anti-CD3, CD19 magnetic beads. Cells were treated with vehicle control (DMSO) or 1 μm 20HC for 24 hours. After exposure to 20HC, monocytes were treated with 500 ng/mL of lipopolysaccharide (LPS) to activate the TLR4 receptor and activate NF-κB. Compared to control cells, LPS-treated cells degraded I-κB and phosphorylated p65 consistent with NF-κB activation (FIG. 7). I-κB degradation and phosphorylation of p65 was blocked in 20HC-treated monocytes.
# [6] = system: Primary neural stem cells; assay: oligodendrocyte differentiation from neural stem cells, western blot for CNPase and MBP; type: cell-based; details: 1 μm and 0.5 μm for five days, then differentiation for 18 days
# Experimental: FIG. 5 is a western blot analysis. Stem cells were treated with oxysterols at doses indicated for 5 days then allowed to differentiate for 18 days. Protein lysates were probed for oligodendrocyte-associated proteins CNPase and myelin basic protein (MBP). Primary neural stem cells were treated with 24-hydroxycholesterol and 25-hydroxycholesterol at 1 μm and 0.5 μm for five days, then allowed to differentiate for 18 days. Protein lysates were probed for oligodendrocyte-associated proteins CNPase and myelin basic protein (MBP).
# [7] = system: perinatal white matter injury in neonatal mice; assay: mouse model of perinatal white matter injury (simulated bowel perforation and sepsis); type: in vivo
# Experimental: Perinatal bowel perforation is a common complication of premature birth and is strongly linked to myelin injury and cerebral palsy. A mouse model of perinatal white matter injury was developed. The model simulates a perinatal bowel perforation and sepsis by injection of donor cecal contents into the peritoneal cavity of neonatal mice on postnatal day 5. Using this model, the efficacy of 25-hydroxycholesterol in reversing white matter injury was tested. […] Breast-milk associated 25-HC reversed diffuse white matter injury. The cells were stained with oligodendrocyte marker CC1. 40× high power fields (PHF) were imaged.
compound,measurement,setting,value
"O=C(O)Cc1cccc(OCCCN(Cc2cccc(C(F)(F)F)c2Cl)CC(c2ccccc2)c2ccccc2)c1 [GW3965, reference compound]",cells polarized into the TH17 population,[1]; 5 days culture,2.6%
"CC(C)CCC[C@](C)(O)[C@H]1CC[C@H]2[C@@H]3CC=C4C[C@@H](O)CC[C@]4(C)[C@H]3CC[C@@]21C [20HC, 20α-Hydroxycholesterol]",development of MS-like symptoms,"[2]; 50 mg/kg/day subcutaneous, from two days prior to EAE induction through day 14",disrupted
same,EAE clinical score,"[2]; compared to control mice over 46 days, p≤0.05",attenuation
same,activation of the SHH pathway via direct binding to smoothened (SMO),[3],activate
same,number of oligodendrocytes (nucleated CNPase+ cells per high power field),[4],increased number
same,I-κB degradation,[5],blocked; also recorded: prevented
same,phosphorylation of p65,[5],blocked; also recorded: prevented
same,cells polarized into the TH17 population,[1]; 5 days culture,2.2%
same,"TH17 polarization (in words, FIG. 8)",[1],decrease
"CC(C)CCC(O)[C@@H](C)[C@H]1CC[C@H]2[C@@H]3CC=C4C[C@@H](O)CC[C@]4(C)[C@H]3CC[C@]12C (stereo partly drawn) [22HC, 22-hydroxycholesterol]",number of oligodendrocytes (nucleated CNPase+ cells per high power field),[4],increased number
"C[C@H](CCCC(C)(C)O)[C@H]1CC[C@H]2[C@@H]3CC=C4C[C@@H](O)CC[C@]4(C)[C@H]3CC[C@]12C [25HC, 25-hydroxycholesterol]",expression of oligodendrocyte-associated proteins CNPase and MBP,[6],induced expression
same,number of oligodendrocytes (nucleated CNPase+ cells per high power field),[4],increased number
same,cells polarized into the TH17 population,[1]; higher doses,2.7%
same,cells polarized into the TH17 population,[1]; low doses,23.6%
same,"TH17 polarization (in words, FIG. 8)",[1]; low doses,promote
same,myelin integrity (fluoromyelin staining),"[7]; 100 mg/kg/day for five days, compared to septic injured mice that received vehicle control",improved myelin integrity
same,diffuse white matter injury,[7]; septic injured neonatal mice,reversed
same,numbers of mature oligodendrocytes (CC1+Olig2+),"[7]; stereology, compared to septic injured mice, p<0.0001",significantly higher
"CC(C)C(O)CC[C@@H](C)[C@H]1CC[C@H]2[C@@H]3CC=C4C[C@@H](O)CC[C@]4(C)[C@H]3CC[C@]12C (stereo partly drawn) [24HC, 24-hydroxycholesterol]",expression of oligodendrocyte-associated proteins CNPase and MBP,[6],induced expression
same,number of oligodendrocytes (nucleated CNPase+ cells per high power field),[4],increased number
same,cells polarized into the TH17 population,[1]; 5 days culture,2.1%
same,"TH17 polarization (in words, FIG. 8)",[1],decrease
"C[C@@H](CO)CCC[C@@H](C)[C@H]1CC[C@H]2[C@@H]3CC=C4C[C@@H](O)CC[C@]4(C)[C@H]3CC[C@]12C [27HC, 27-hydroxycholesterol]",number of oligodendrocytes (nucleated CNPase+ cells per high power field),[4],did not increase
CC(C)CC[C@@H](O)[C@@H](C)[C@H]1CC[C@H]2[C@@H]3CC=C4C[C@@H](O)CC[C@]4(C)[C@H]3CC[C@]12C [22α-hydroxycholesterol],activation of the SHH pathway via direct binding to smoothened (SMO),[3],activate
